Test results as given in patent publication US9302999B2, “Substituted triazoles as herbicides” (E. I. DU PONT DE NEMOURS AND COMPANY, priority 2012, dated 2016).

What was measured:
Format in all cases: in vivo
[1] = tested on: foxtail, giant (giant foxtail, Setaria faberii); test: Test E pre-/postemergence: foxtail, giant; details: Preemergence, scale 0 to 100
Outline: (§1)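 Scores reflect greenhouse visual evaluation after 14–21 days, 0 meaning no effect and 100 complete control relative to untreated plants, for pre- and postemergence (1–4 leaf) applications.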

[2] = tested on: nutsedge, yellow (yellow nutsedge, Cyperus esculentus); test: Test E pre-/postemergence: nutsedge, yellow; details: Preemergence, scale 0 to 100
Description: (§2) Seeds of plant species selected from corn (Zea mays), soybean (Glycine max), velvetleaf (Abutilon theophrasti), lambsquarters (Chenopodium album), poinsettia, wild (wild poinsettia, Euphorbia heterophylla), pigweed, palmer (palmer pigweed, Amaranthus palmeri), waterhemp (common waterhemp, Amaranthus rudis), smartweed (ladysthumb smartweed, Polygonum persicaria), surinam grass (Brachiaria decumbens), crabgrass, large (large crabgrass, Digitaria sanguinalis), crabgrass, Brazil (Brazilian crabgrass, Digitaria horizontalis), panicum, fall (fall panicum, Panicum dichotomiflorum), foxtail, giant (giant foxtail, Setaria faberii), foxtail, green (green foxtail, Setaria viridis), goosegrass (Eleusine indica), johnsongrass (Sorghum halepense), ragweed (common ragweed, Ambrosia elation), barnyardgrass (Echinochloa crus-galli), sandbur (southern sandbur, Cenchrus echinatus), arrowleaf sida (Sida rhombifolia), ryegrass, Italian (Italian ryegrass, Lolium multiflorum), dayflower, (VA) (Virginia dayflower, Commelina virginica), field bindweed (Convolvulus arvensis), cocklebur (common cocklebur, Xanthium strumarium), morningglory (Ipomoea coccinea), nightshade (eastern black nightshade, Solanum ptycanthum), kochia (Kochia scoparia), nutsedge, yellow (yellow nutsedge, Cyperus esculentus) and beggarticks (hairy beggarticks, Bidens pilosa) were planted into a silt loam soil and treated preemergence with test chemicals formulated in a non-phytotoxic solvent mixture which included a surfactant. At the same time, plants selected from these crop and weed species were planted in pots containing a growing medium comprising spaghnum peat moss, vermiculite, wetting agent and starter nutrients and treated with postemergence applications of some of the test chemicals formulated in the same manner. Plants ranged in height from 2 to 18 cm for postemergence treatments (1- to 4-leaf stage).
(§3) Treated plants and controls were maintained in a greenhouse for 14 to 21 days, after which time all species were compared to controls and visually evaluated. Plant response ratings, summarized in Table E, are based on a scale of 0 to 100 where 0 is no effect and 100 is complete control. A dash (-) response means no test result.

[3] = tested on: chickweed (common chickweed, Stellaria media); test: Test D pre-/postemergence: chickweed
Description: Seeds of plant species selected from bluegrass (annual bluegrass, Poa annua), blackgrass (Alopecurus myosuroides), canarygrass (Phalaris minor), chickweed (common chickweed, Stellaria media), galium (catchweed bedstraw, Galium aparine), bromegrass, downy (downy bromegrass, Bromus tectorum), field poppy (Papaver rhoeas), field violet (Viola arvensis), foxtail, green (green foxtail, Setaria viridis), deadnettle (henbit deadnettle, Lamium amplexicaule), ryegrass, Italian (Italian ryegrass, Lolium multiflorum), kochia (Kochia scoparia), lambsquarters (Chenopodium album), oilseed rape (Brassica napus), pigweed (Amaranthus retroflexus), Russian thistle (Salsola iberica), chamomile (scentless chamomile, Matricaria inodora), speedwell (bird's-eye speedwell, Veronica persica), barley, spring (spring barley, Hordeum vulgare), wheat, spring (spring wheat, Triticum aestivum), buckwheat, wild (wild buckwheat, Polygonum convolvulus), mustard, wild (wild mustard, Sinapis arvensis), oat, wild (wild oat, Avena fatua), radish, wild (wild radish, Raphanus raphanistrum), windgrass (Apera spica-venti), barley, winter (winter barley, Hordeum vulgare), and wheat, winter (winter wheat, Triticum aestivum) were planted into a silt loam soil and treated preemergence with test chemicals formulated in a non-phytotoxic solvent mixture which included a surfactant. At the same time, these same crop and weed species were planted in pots containing the planting medium comprising spaghnum peat moss, vermiculite, wetting agent and starter nutrients and treated with postemergence applications of the test chemicals formulated in the same manner. Plants ranged in height from 2 to 18 cm (1- to 4-leaf stage).
Treated plants and controls were maintained in a controlled growth environment for 14 to 21 days after which time all species were compared to controls and visually evaluated. Plant response ratings, summarized in Table D, are based on a scale of 0 to 100 where 0 is no effect and 100 is complete control. A dash (-) response means no test result.

soybean (Glycine max) = test: Test E pre-/postemergence: soybean; details: Preemergence, scale 0 to 100
Description: as §2, §3

[4] = tested on: velvetleaf (Abutilon theophrasti); test: Test E pre-/postemergence: velvetleaf; details: Preemergence, scale 0 to 100
Description: as §2, §3

[5] = tested on: smartweed (ladysthumb smartweed, Polygonum persicaria); test: Test E pre-/postemergence: smartweed; details: Preemergence, scale 0 to 100
Description: as §2, §3

[6] = tested on: sandbur (southern sandbur, Cenchrus echinatus); test: Test E pre-/postemergence: sandbur; details: Preemergence, scale 0 to 100
Outline: as §1

[7] = tested on: field bindweed (Convolvulus arvensis); test: Test E pre-/postemergence: field bindweed; details: Preemergence, scale 0 to 100
Description: as §2, §3

[8] = tested on: crabgrass, large (large crabgrass, Digitaria sanguinalis); test: Test E pre-/postemergence: crabgrass, large; details: Preemergence, scale 0 to 100
Outline: as §1

corn (Zea mays) = test: Test E pre-/postemergence: corn; details: Preemergence, scale 0 to 100
Outline: as §1

[9] = tested on: nightshade (eastern black nightshade, Solanum ptycanthum); test: Test E pre-/postemergence: nightshade; details: Preemergence, scale 0 to 100
Outline: as §1

[10] = Postemergence, 31 g ai/ha, scale 0 to 100 (0 no effect, 100 complete control)
[11] = Postemergence, 62 g ai/ha, scale 0 to 100 (0 no effect, 100 complete control)
[12] = Postemergence, 125 g ai/ha, scale 0 to 100, 0 no effect, 100 complete control
[13] = Postemergence, 250 g ai/ha, scale 0 to 100 (0 no effect, 100 complete control)
[14] = Preemergence, 31 g ai/ha, scale 0 to 100, 0 no effect, 100 complete control
[15] = Preemergence, 62 g ai/ha, scale 0 to 100
[16] = Preemergence, 125 g ai/ha, scale 0 to 100
[17] = Preemergence, 250 g ai/ha, scale 0 to 100

FC(F)(F)COc1nn(-c2ccc(C(F)(F)F)cc2)nc1Cc1ccnc(C(F)(F)F)c1 [Compound 14, 4-[[5-(2,2,2-trifluoroethoxy)-2-[4-(trifluoromethyl)phenyl]-2H-1,2,3-triazol-4-yl]methyl]-2-(trifluoromethyl)pyridine]
20: Plant response rating: Velvetleaf ([4]; 16 g ai/ha) | Plant response rating: Field Bindweed ([7]; 31 g ai/ha)
100: Plant response rating: Foxtail, Giant ([1]; 125 g ai/ha) | Plant response rating: Foxtail, Giant ([1]; 250 g ai/ha) | Plant response rating, Chickweed [3, 15] | Plant response rating, Chickweed [3, 16] | Plant response rating, Chickweed [3, 17] | Plant response rating: Crabgrass, Large ([8]; 125 g ai/ha) | Plant response rating: Crabgrass, Large ([8]; 250 g ai/ha)
5: Plant response rating: Sandbur ([6]; 16 g ai/ha) | Plant response rating: Sandbur ([6]; 31 g ai/ha) | Plant response rating: Field Bindweed ([7]; 16 g ai/ha)
35: Plant response rating: Soybean (soybean (Glycine max); 250 g ai/ha) | Plant response rating: Velvetleaf ([4]; 31 g ai/ha) | Plant response rating: Nightshade ([9]; 16 g ai/ha)
75: Plant response rating: Foxtail, Giant ([1]; 31 g ai/ha) | Plant response rating, Chickweed [3, 14] | Plant response rating: Field Bindweed ([7]; 250 g ai/ha) | Plant response rating: Crabgrass, Large ([8]; 31 g ai/ha)
95: Plant response rating: Velvetleaf ([4]; 250 g ai/ha) | Plant response rating: Crabgrass, Large ([8]; 62 g ai/ha)
15: Plant response rating: Nutsedge, Yellow ([2]; 250 g ai/ha) | Plant response rating: Sandbur ([6]; 62 g ai/ha)
0: Plant response rating: Nutsedge, Yellow ([2]; 16 g ai/ha) | Plant response rating: Nutsedge, Yellow ([2]; 31 g ai/ha) | Plant response rating: Nutsedge, Yellow ([2]; 62 g ai/ha) | Plant response rating: Nutsedge, Yellow ([2]; 125 g ai/ha) | Plant response rating: Soybean (soybean (Glycine max); 16 g ai/ha) | Plant response rating: Corn (corn (Zea mays); 16 g ai/ha) | Plant response rating: Corn (corn (Zea mays); 31 g ai/ha) | Plant response rating: Corn (corn (Zea mays); 62 g ai/ha) | Plant response rating: Corn (corn (Zea mays); 125 g ai/ha) | Plant response rating: Corn (corn (Zea mays); 250 g ai/ha)
65: Plant response rating: Field Bindweed ([7]; 62 g ai/ha) | Plant response rating: Field Bindweed ([7]; 125 g ai/ha) | Plant response rating: Crabgrass, Large ([8]; 16 g ai/ha)
60: Plant response rating: Nightshade ([9]; 31 g ai/ha)
25: Plant response rating: Soybean (soybean (Glycine max); 62 g ai/ha) | Plant response rating: Smartweed ([5]; 31 g ai/ha)
50: Plant response rating: Foxtail, Giant ([1]; 16 g ai/ha) | Plant response rating: Chickweed [3, 10] | Plant response rating: Velvetleaf ([4]; 62 g ai/ha) | Plant response rating: Sandbur ([6]; 125 g ai/ha) | Plant response rating: Sandbur ([6]; 250 g ai/ha)
98: Plant response rating: Foxtail, Giant ([1]; 62 g ai/ha) | Plant response rating: Chickweed [3, 13] | Plant response rating: Nightshade ([9]; 62 g ai/ha) | Plant response rating: Nightshade ([9]; 125 g ai/ha) | Plant response rating: Nightshade ([9]; 250 g ai/ha)
80: Plant response rating: Chickweed [3, 11] | Plant response rating: Velvetleaf ([4]; 125 g ai/ha) | Plant response rating: Smartweed ([5]; 62 g ai/ha) | Plant response rating: Smartweed ([5]; 250 g ai/ha)
90: Plant response rating: Chickweed [3, 12]
10: Plant response rating: Soybean (soybean (Glycine max); 31 g ai/ha)

COc1nn(-c2ccc(C(F)(F)F)cc2)nc1Cc1ccnc(C(F)(F)F)c1 [Compound 15, 4-[[5-methoxy-2-[4-(trifluoromethyl)phenyl]-2H-1,2,3-triazol-4-yl]methyl]-2-(trifluoromethyl)pyridine]
40: Plant response rating, Chickweed ([3]; Postemergence, 16 g ai/ha, scale 0 to 100) | Plant response rating: Field Bindweed ([7]; 62 g ai/ha)
98: Plant response rating: Foxtail, Giant ([1]; 31 g ai/ha) | Plant response rating: Smartweed ([5]; 62 g ai/ha) | Plant response rating: Smartweed ([5]; 125 g ai/ha) | Plant response rating: Nightshade ([9]; 62 g ai/ha) | Plant response rating: Nightshade ([9]; 125 g ai/ha)
5: Plant response rating: Sandbur ([6]; 16 g ai/ha) | Plant response rating: Field Bindweed ([7]; 16 g ai/ha) | Plant response rating: Field Bindweed ([7]; 31 g ai/ha) | Plant response rating: Corn (corn (Zea mays); 125 g ai/ha) | Plant response rating: Nightshade ([9]; 16 g ai/ha)
30: Plant response rating: Velvetleaf ([4]; 31 g ai/ha)
35: Plant response rating: Soybean (soybean (Glycine max); 125 g ai/ha) | Plant response rating: Soybean (soybean (Glycine max); 250 g ai/ha) | Plant response rating: Nightshade ([9]; 31 g ai/ha)
15: Plant response rating: Crabgrass, Large ([8]; 16 g ai/ha)
25: Plant response rating: Sandbur ([6]; 31 g ai/ha)
90: Plant response rating: Sandbur ([6]; 125 g ai/ha) | Plant response rating: Crabgrass, Large ([8]; 31 g ai/ha)
60: Plant response rating: Smartweed ([5]; 31 g ai/ha) | Plant response rating: Field Bindweed ([7]; 125 g ai/ha)
20: Plant response rating: Soybean (soybean (Glycine max); 62 g ai/ha) | Plant response rating: Velvetleaf ([4]; 16 g ai/ha)
100: Plant response rating: Foxtail, Giant ([1]; 62 g ai/ha) | Plant response rating: Foxtail, Giant ([1]; 125 g ai/ha) | Plant response rating: Foxtail, Giant ([1]; 250 g ai/ha) | Plant response rating: Chickweed [3, 10] | Plant response rating: Chickweed [3, 11] | Plant response rating: Chickweed [3, 12] | Plant response rating: Chickweed [3, 13] | Plant response rating, Chickweed [3, 14] | Plant response rating, Chickweed [3, 15] | Plant response rating, Chickweed [3, 16] | Plant response rating, Chickweed [3, 17] | Plant response rating: Smartweed ([5]; 250 g ai/ha) | Plant response rating: Sandbur ([6]; 250 g ai/ha) | Plant response rating: Crabgrass, Large ([8]; 62 g ai/ha) | Plant response rating: Crabgrass, Large ([8]; 125 g ai/ha) | Plant response rating: Crabgrass, Large ([8]; 250 g ai/ha) | Plant response rating: Nightshade ([9]; 250 g ai/ha)
0: Plant response rating: Nutsedge, Yellow ([2]; 16 g ai/ha) | Plant response rating: Nutsedge, Yellow ([2]; 31 g ai/ha) | Plant response rating: Nutsedge, Yellow ([2]; 62 g ai/ha) | Plant response rating: Nutsedge, Yellow ([2]; 125 g ai/ha) | Plant response rating: Nutsedge, Yellow ([2]; 250 g ai/ha) | Plant response rating: Soybean (soybean (Glycine max); 16 g ai/ha) | Plant response rating: Soybean (soybean (Glycine max); 31 g ai/ha) | Plant response rating: Corn (corn (Zea mays); 16 g ai/ha) | Plant response rating: Corn (corn (Zea mays); 31 g ai/ha) | Plant response rating: Corn (corn (Zea mays); 62 g ai/ha)
10: Plant response rating: Corn (corn (Zea mays); 250 g ai/ha)
50: Plant response rating: Sandbur ([6]; 62 g ai/ha)
65: Plant response rating: Foxtail, Giant ([1]; 16 g ai/ha) | Plant response rating: Velvetleaf ([4]; 62 g ai/ha) | Plant response rating: Velvetleaf ([4]; 125 g ai/ha)
95: Plant response rating: Velvetleaf ([4]; 250 g ai/ha) | Plant response rating: Field Bindweed ([7]; 250 g ai/ha)
